Measurements published in patent US20080255186A1, “Pyrazolo[3,4-B]Pyridine Compound, and Its Use as a Pde4 Inhibitor” (priority 2005, published 2008).
Like-named read-outs stand apart in the source and are kept apart here.

What was measured:
[1] = system: TNF-α (TNF-alpha) production in Human Whole Blood; assay: Inhibition of TNF-alpha production in Human Whole Blood (IGEN assay); format: cell-based
Description: This is an optional supplementary test, e.g. for potentially orally-administrable PDE4 inhibitors. Also, as the assay may measure the effect of PDE4 inhibitors after loss by protein binding, it might possibly also be relevant to externally-topically-administrable PDE4 inhibitors as protein-binding-loss of compound is possible during transport through the skin.
Test compounds are prepared as a ca. 10 mM stock solution in DMSO and a dilution series prepared in DMSO with 8 successive 3-fold dilutions, either directly from the 10 mM stock solution or from a more dilute solution in DMSO. The compound is added to assay plates using a Biomek Fx liquid handling robot.
Heparinised blood drawn from normal volunteers is dispensed (ca. 100 μl=ca. 100 ul) into microtitre plate wells containing ca. 0.5 or ca. 1.0 μl (ul, microlitres) of an appropriately diluted test compound solution. […] Plasma TNFα content is determined by electrochemiluminescence assay using the MSD technology (see below), the IGEN technology (see below) or by enzyme linked immunosorbant assay (ELISA) (see below).
Ca. […] 50 μl (ul) of streptavidin/biotinylated anti-TNF-α antibody mix, ca. 25 μl ruthenium tagged anti-TNF-α monoclonal and ca. 100 μl PBS containing 0.1% bovine serum albumin are added to each well and the plates are sealed and shaken for ca. 2 hours before being read on an IGEN instrument.

[2] = biological target: PDE4D (human recombinant) (Homo sapiens, UniProt Q08499); assay: PDE4D inhibition, IMAP Fluorescence Polarisation (FP) assay; format: biochemical; settings: mean of n = 3 readings; accurate to about ±0.5 log unit; read-out: PDE4D pIC50 (± about 0.5) (FP assay), Mean pIC50 value (converted)
Sequence of PDE4D (human recombinant) (Q08499 1-673 isoform Q08499-2): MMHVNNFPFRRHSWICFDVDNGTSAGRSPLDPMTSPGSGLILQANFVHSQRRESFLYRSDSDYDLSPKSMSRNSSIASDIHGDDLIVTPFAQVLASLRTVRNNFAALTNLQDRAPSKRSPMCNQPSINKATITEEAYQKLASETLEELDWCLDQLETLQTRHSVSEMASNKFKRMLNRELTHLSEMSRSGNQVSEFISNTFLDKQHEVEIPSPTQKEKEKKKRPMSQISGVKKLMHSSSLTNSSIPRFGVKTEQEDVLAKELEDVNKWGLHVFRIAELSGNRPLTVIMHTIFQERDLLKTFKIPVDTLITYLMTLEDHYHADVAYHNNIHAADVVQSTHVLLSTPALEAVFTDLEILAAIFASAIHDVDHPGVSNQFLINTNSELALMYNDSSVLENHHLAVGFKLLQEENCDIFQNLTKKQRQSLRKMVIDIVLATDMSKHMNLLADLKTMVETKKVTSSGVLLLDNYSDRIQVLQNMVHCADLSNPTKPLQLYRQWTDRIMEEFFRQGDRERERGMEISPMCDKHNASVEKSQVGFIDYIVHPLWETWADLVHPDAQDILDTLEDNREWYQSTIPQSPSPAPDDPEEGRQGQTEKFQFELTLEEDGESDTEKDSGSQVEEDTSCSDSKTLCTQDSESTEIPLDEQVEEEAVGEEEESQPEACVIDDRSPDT
From the text: Human recombinant PDE4D (HSPDE4D3A) is disclosed in P. A. Baecker et al., “Isolation of a cDNA encoding a human rolipram-sensitive cyclic AMP phoshodiesterase (PDE IVD)”, Gene, 1994, 138, 253-256.
The ability of compounds to inhibit catalytic activity at PDE4B (human recombinant) or PDE4D (human recombinant) can optionally be determined by IMAP Fluorescence Polarisation (FP) assay (IMAP Explorer kit, available from Molecular Devices Corporation, Sunnydale, Calif., USA; Molecular Devices code: R8062) in 384-well format.
The IMAP FP assay is able to measure PDE activity in an homogenous, non-radioactive assay format. […] Binding of Fl-AMP product to the beads (coated with the immobilised trivalent cations) slows the rotation of the bound Fl-AMP and leads to an increase in the fluorescence polarisation ratio of parallel to perpendicular light. […]
Test compounds (small volume, e.g. ca. 0.5 to 1 microlitres (ul), suitably ca. 0.5 ul, of solution in DMSO) are preincubated at ambient temperature (room temperature, e.g. 19-23° C.) in black 384-well microtitre plates (supplier: NUNC, code 262260) with PDE enzyme in 10 mM Tris-HCl buffer pH 7.2, 1 mM MgCl2, 0.1% (w/v) bovine serum albumin, and 0.05% NaN3 for 10-30 minutes. […] The Fluorescence Polarisation (FP) ratio of parallel to perpendicular light is measured using an Analyst™ plate reader (from Molecular Devices Corporation). […]

SMILES: CCc1nc2c(cnn2CC)c(NC2CCOCC2)c1CNC(=O)c1cc(C)no1 [Example 1, N-{[1,6-diethyl-4-(tetrahydro-2H-pyran-4-ylamino)-1H-pyrazolo[3,4-b]pyridin-5-yl]methyl}-3-methyl-5-isoxazolecarboxamide]
- IC50 ([1]; n = about 4, LPS-stimulated, read-out: Whole Blood, Mean pIC50 (IGEN assay) (converted)): ~2 nM
- IC50 ([1]; range of individual measurements, read-out: Whole Blood individual pIC50 test values, range (IGEN assay) (converted)): 1.26 to 2.63 nM
- IC50 [2]: ~0.1 nM
